Assay [1] has as its target T1, Human Dopamine D4 receptor (Homo sapiens, UniProt P21917).
T1 construct: expressed in transfected cells; host or cells: Sf9 cells
T1 sequence (P21917 1-419): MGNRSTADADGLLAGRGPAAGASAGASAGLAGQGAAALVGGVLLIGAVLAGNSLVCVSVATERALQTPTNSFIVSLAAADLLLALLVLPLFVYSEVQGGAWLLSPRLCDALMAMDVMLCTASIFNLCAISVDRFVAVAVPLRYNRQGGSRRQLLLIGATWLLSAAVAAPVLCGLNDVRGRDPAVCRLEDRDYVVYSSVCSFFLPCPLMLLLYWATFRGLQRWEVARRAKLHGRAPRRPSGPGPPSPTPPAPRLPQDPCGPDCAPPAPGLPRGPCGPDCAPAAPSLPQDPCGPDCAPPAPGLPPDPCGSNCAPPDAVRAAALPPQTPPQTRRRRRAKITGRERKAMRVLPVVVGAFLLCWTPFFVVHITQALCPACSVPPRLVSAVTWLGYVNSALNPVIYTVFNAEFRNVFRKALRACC
The assay can be described thus: Radioligand binding experiment for dopamine D4 receptor (hD4), [125I]Spiperone. The conditions noted are these: membranes of D4 receptor-transfected Sf9 cells, read-out: pIC50 D4 (converted). As for the experimental part: The interaction of the compounds of Formula (I) with dopamine-receptors, h5HT-transporter and h5HT1A receptor was assessed in in vitro radioligand binding experiments. In general, a low concentration of a radioligand with a high binding affinity for a particular receptor or transporter is incubated with a sample of a tissue preparation enriched in a particular receptor or transporter or with a preparation of cells expressing cloned human receptors in a buffered medium. During the incubation, the radioligand binds to the receptor or transporter. When equilibrium of binding is reached, the receptor bound radioactivity is separated from the non-bound radioactivity, and the receptor- or transporter-bound activity is counted The interaction of the test compounds with the receptor is assessed in competition binding experiments. Various concentrations of the test compound are added to the incubation mixture containing the receptor- or transporter preparation and the radioligand. […]
Human Dopamine D4 receptor-transfected Sf9 cells were collected by scraping into ice-cold Tris-HCl buffer (50 mM, pH 7.4). […] Filters were allowed to dry before adding scintillation fluid and counting in a Topcount scintillation counter. % Specific bound and competition binding curves were calculated using S-Plus software (Insightful).

In assay [2] the target is T2, Human Dopamine D2L receptor (Homo sapiens, UniProt P14416).
T2 construct: expressed in transfected cells; host or cells: CHO cells
The assay can be described thus: Radioligand binding experiment for dopamine D2 receptor (hD2), [3H]Spiperone. The conditions noted are these: membranes of D2L receptor-transfected CHO cells, read-out: pIC50 D2 (converted). As for the experimental part: (§1) The interaction of the compounds of Formula (I) with dopamine-receptors, h5HT-transporter and h5HT1A receptor was assessed in in vitro radioligand binding experiments. In general, a low concentration of a radioligand with a high binding affinity for a particular receptor or transporter is incubated with a sample of a tissue preparation enriched in a particular receptor or transporter or with a preparation of cells expressing cloned human receptors in a buffered medium. During the incubation, the radioligand binds to the receptor or transporter. When equilibrium of binding is reached, the receptor bound radioactivity is separated from the non-bound radioactivity, and the receptor- or transporter-bound activity is counted The interaction of the test compounds with the receptor is assessed in competition binding experiments. Various concentrations of the test compound are added to the incubation mixture containing the receptor- or transporter preparation and the radioligand. The test compound in proportion to its binding affinity and its concentration inhibits binding of the radioligand.
Human Dopamine D2L receptor-transfected CHO cells were collected by scraping into ice-cold Tris-HCl buffer ([…], pH 7.4). The suspension was centrifuged (23 500×g, 10 min, 4° C.) and pellets stored at −70° C. until require. They were then thawed and briefly homogenised using an Ultra-Turrax T25 homogeniser prior to dilution to an appropriate protein concentration optimised for specific and non-specific binding. [^3H]Spiperone (NEN, specific activity˜70 Ci/mmol) was diluted in Tris-HCl assay buffer containing NaCl, CaCl2, MgCl2, KCI (50, 120, 2, 1, and 5 mM respectively, adjusted to pH 7.7 with HCl) at a concentration of 2 nmol/L. Prepared radioligand (50 μl) was then incubated (30 min, 37° C.) with membrane preparations pre-diluted to an appropriate protein concentration (400 μl), and with 50 μl of either the 10% DMSO control, Butaclamol (10^−6 mol/L final concentration), or compound of interest. Membrane-bound activity was detected by filtration through a Packard Filtermate harvester onto Unifilterplates, washing with ice-old Tris-HCl buffer (50 mM; pH8.0; 3×4 ml). Filters were allowed to dry before adding scintillation fluid and counting in a Topcount scintillation counter. % Specific bound and competition binding curves were calculated using S-Plus software (Insightful).

The target in a further assay is T3, Human 5HT1A receptor (Homo sapiens, UniProt P08908).
T3 construct: expressed in transfected cells; host or cells: L929 cells (stably transfected)
T3 sequence (P08908 1-422): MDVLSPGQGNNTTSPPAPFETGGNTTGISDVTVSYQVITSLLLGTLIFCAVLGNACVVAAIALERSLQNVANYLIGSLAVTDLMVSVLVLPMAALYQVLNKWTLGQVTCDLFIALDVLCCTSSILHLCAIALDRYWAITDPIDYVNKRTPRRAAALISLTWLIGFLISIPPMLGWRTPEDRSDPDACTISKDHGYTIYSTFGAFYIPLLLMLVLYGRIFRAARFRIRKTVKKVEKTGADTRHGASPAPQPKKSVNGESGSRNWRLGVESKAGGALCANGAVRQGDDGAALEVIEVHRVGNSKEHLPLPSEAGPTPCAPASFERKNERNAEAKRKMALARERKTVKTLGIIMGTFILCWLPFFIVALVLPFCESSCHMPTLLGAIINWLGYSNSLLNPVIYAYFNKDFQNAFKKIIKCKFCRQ
As to the kind of experiment: Binding experiment for 5-HT1A receptor, [3H]8OHDPAT. The conditions noted are these: membranes of 5HT1A receptor-transfected L929 cells, read-out: pIC50 5HT1A (converted). The procedure: as §1
Human 5HT1A receptor-transfected L929 cells were collected by scraping into ice-cold Tris-HCl buffer (50 mM, pH 7.4). The suspension was centrifuged (23 500×g, 10 min, 4° C.) and pellets stored at −70° C. until required. They were then thawed and briefly homogenised using an Ultra-Turrax T25 homogeniser prior to dilution to an appropriate protein concentration optimised for specific and non-specific binding. [^3H]8OHDPAT (NEN, specific activity 127 Ci/mmol) was diluted in Tris-HCl assay buffer containing CaCl2 (50 mM and 4 mM, respectively; pH 7.7) at a concentration of 5 nmol/L. Prepared radioligand (50 μl) was then incubated (30 min, 37° C.) with membrane preparations from L929 cells stably-transfected with the h5HT1A gene construct (400 μl) and with 50 μl of either the 10% DMSO control, spiroxatrine (10^−6 mol/L final concentration), or compound of interest. Membrane-bound activity was detected by filtration through a Packard Filtermate harvester onto Unifaltemplates, washing with ice-cold Tris-HCI buffer (3×4 ml), followed by drying. Scintillation fluid was added and membranes were counted in a Topcount scintillation counter. % Specific bound and competition binding curves were calculated using S-Plus software (Insightful).

The target of the next assay is T4, human 5HT transporter (Homo sapiens, UniProt P31645).
T4 construct: host or cells: HEK cells
As to the kind of experiment: Binding experiment for 5-HT transporter, [3H]Paroxetine. The conditions noted are these: 5HT transporter-transfected HEK cells, [3H]Paroxetine binding; read-out: pIC50 5HT reuptake inhibition (converted). The procedure: as §1
Frozen human 5HT transporter-transfected HEK cells (Perkin Elmer, Brussels) were thawed and briefly homogenised using an Ultra-Turrax T25 homogeniser prior to dilution to an appropriate protein concentration optimised for specific and non-specific binding. [^3H]Paroxetine (NEN, specific activity 20 Ci/mmol) was diluted in Tris-HCl assay buffer containing NaCl and KCl (50 mM 120 mM and 5 mM, respectively; pH 7.4) at a concentration of 5 nmol/L. Prepared radioligand (25 μl) was then incubated (60 min, 25° C.) with membrane preparations (200 μl) and with 25 μl of either 10% DMSO control, Imipramine (10^−6 mol/L final concentration), or compound of interest Membrane-bound activity was detected by filtration through a Packard Filtermate harvester onto Unifilterplates pre-soaked in 0.1% PEI, washing with ice-cold assay buffer (3×4 ml). Filters were dried prior to addition of scintillation fluid and then counting in a Topcount scintillation counter. % Specific bound and competition binding curves were calculated using S-Plus software (Insightful).

T2 sequence (P14416 whole entry): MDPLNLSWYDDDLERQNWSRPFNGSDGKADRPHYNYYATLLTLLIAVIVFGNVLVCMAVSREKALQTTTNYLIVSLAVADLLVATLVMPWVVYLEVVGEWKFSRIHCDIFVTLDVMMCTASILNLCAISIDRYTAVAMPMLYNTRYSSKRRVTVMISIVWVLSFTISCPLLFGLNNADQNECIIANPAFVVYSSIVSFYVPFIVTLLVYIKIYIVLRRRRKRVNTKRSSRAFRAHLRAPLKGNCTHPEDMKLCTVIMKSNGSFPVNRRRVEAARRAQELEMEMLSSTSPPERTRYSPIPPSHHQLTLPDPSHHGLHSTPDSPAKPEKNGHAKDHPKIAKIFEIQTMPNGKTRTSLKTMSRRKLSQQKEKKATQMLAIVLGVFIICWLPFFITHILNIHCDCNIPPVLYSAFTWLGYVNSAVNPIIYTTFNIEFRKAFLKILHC
T4 sequence (P31645 whole entry): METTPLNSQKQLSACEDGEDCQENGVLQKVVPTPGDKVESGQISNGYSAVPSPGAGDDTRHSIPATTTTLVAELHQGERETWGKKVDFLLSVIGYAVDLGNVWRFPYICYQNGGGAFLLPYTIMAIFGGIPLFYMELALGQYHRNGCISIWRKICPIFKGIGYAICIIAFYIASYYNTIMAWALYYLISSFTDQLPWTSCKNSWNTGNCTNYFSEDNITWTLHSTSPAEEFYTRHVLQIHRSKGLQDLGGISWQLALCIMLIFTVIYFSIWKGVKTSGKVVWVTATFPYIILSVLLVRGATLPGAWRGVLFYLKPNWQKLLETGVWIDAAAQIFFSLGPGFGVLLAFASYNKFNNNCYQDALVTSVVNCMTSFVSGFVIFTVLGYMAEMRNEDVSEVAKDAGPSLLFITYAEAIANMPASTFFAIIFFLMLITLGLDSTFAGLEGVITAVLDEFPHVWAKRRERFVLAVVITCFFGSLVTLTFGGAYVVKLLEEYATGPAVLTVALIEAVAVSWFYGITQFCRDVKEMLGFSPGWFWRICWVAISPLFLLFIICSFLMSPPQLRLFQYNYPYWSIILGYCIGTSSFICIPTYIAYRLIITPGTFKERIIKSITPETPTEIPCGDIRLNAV

`Fc1ccc2[nH]cc(C3=CCN(CC4COc5ccncc5O4)CC3)c2c1` (stereo not shown) [Compound 4]: the IC50 in assay [1] was 50.1 nM; in assay [2], 158 nM; on Human 5HT1A receptor, 126 nM; on human 5HT transporter it was 50.1 nM.
